Measured values reported in PMC7594077, “An Alcohol Dehydrogenase 3 (ADH3) from Entamoeba histolytica Is Involved in the Detoxification of Toxic Aldehydes” (Microorganisms, 2020).

Legend:
recEhADH3B^b = target: T1, recEhADH3B^b (Entamoeba histolytica, UniProt C4M6R1); experiment: NADPH oxidation at […] nm, Michaelis-Menten; type: biochemical; conditions: 0.7 mM NADPH, pH 7.4, EDTA-treated and dialysed enzyme incubated with 1 mM Ni2+; reduction direction
T1 construct: gene EHI_088020; E. coli BL21(DE3); dimer; EDTA-stripped and reloaded with Ni2+
T1 sequence (C4M6R1 1-382): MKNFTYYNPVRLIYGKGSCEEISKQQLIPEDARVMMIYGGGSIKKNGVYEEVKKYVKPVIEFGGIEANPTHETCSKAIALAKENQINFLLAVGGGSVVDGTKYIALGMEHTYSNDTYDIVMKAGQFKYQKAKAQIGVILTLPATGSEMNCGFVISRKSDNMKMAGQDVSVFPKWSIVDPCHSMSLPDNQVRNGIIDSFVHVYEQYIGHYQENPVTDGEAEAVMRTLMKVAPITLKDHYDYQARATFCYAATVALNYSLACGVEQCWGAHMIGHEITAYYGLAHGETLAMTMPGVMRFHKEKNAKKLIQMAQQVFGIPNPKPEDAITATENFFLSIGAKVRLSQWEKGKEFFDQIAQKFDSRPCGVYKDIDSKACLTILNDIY

[1] = target: recombinant EhADH3B^b (alcohol dehydrogenase 3B of Entamoeba histolytica) (Entamoeba histolytica); experiment: SEC; HiLoad 16/60 Superdex prep grade column; 50 mM Tris, 150 mM NaCl, 10 mM EDTA, 1 mM DTT, 10% glycerol, pH 8.0; elution peak at 82 mL compared with standard proteins

Row | Compound | Km (recEhADH3B^b) | stoichiometry N [1]
1 | CC=O [acetaldehyde] | 30.84 [95% CI 16.21–60.54] mM | 
2 | C=O [formaldehyde] | 63.7 [95% CI 25.3 to 267.4] mM | 
3 | recombinant EhADH3B^b (alcohol dehydrogenase 3B of Entamoeba histolytica) (enzyme) |  | 2
